Laboratory results from paper PMC10587869, “Deciphering Structural Determinants Distinguishing Active from Inactive Cell-Penetrating Peptides for Cytosolic mRNA Delivery” (Bioconjugate Chemistry, 2023).
Positions of bridges follow the written chain, without caps; N, C: chain ends. Non-standard residues stand in square brackets, D forms with d. Residues, ends and D or L forms follow the SMILES beside them. Orn = NCCC[C@H](N)C(=O)O

Experiments:
[1] = test system: MC3T3 cells; experiment: Resazurin assay of metabolic activity after mRNA transfection; assay type: cell-based, murine; settings: normalized to untreated
Experimental: (§1) One day before mRNA transfections, 10 000 MC3T3 cells in 100 μL were seeded in 96-well plates (Greiner Bio-One Cat. No. 655180) or 20 000 cells in 200 μL in μ-slide eight-well chambers (Ibidi, Gräfelfing, Germany). These seeding densities ensured confluency between ∼70 and 90% on the day of transfection. mRNA transfections were performed by removing the complete medium from the wells and replacing it with mRNA nanoparticles diluted 10 times in complete medium. Cells were exposed to mRNA nanoparticles for 2 h at 37 °C, 5% CO2, in a humidified incubator. For some experiments, cells were stained with 200 μL of 1 μM CellTrace yellow (Thermo Fisher Scientific, Cat. No. C34567) directly after the nanoparticle incubation, according to the manufacturer’s instructions. Regardless of the tested N/P ratio or type of nanoparticle, mRNA inputs were equalized across conditions, resulting in 107 ng/well for luciferase assays in 96-well plate formats and 214 ng/well for confocal microscopy experiments. […] For untreated controls, complete cell culture medium was added and refreshed as often as in the experimental conditions.
The resazurin-based assay was performed essentially as described previously.[61],[62] In brief, the effect of different peptide-mRNA complexes on the metabolic activity of cells was measured 24 h post-transfection. Resazurin sodium salt (Sigma-Aldrich, Cat No. R7017) was dissolved in PBS and diluted 100 times to a final concentration of 100 μg/mL in complete medium. After 2 h of incubation with cells at 37 °C, fluorescence was measured using the VICTOR X3Multilabel Plate Reader (PerkinElmer, Waltham, MA, USA). After briefly shaking the plate, resazurin was excited at 485 nm, and emission was collected from 570 to 620 nm. All samples were blanked by the average signal of cell-free wells. Blanked data were normalized to untreated conditions per cell type.

[2] = test system: MC3T3 cells; experiment: Cellular uptake of Cy5-eGFP mRNA polyplexes, live-cell confocal microscopy; assay type: cell-based, murine; settings: for effect of oligomerization on uptake: Cy5-labeled mRNA, polymerized vs monomeric, Figure 5, Figure S5; for ratio of Poly hLF-x vs Mono-hLF-x, Corrected Total Cellular Fluorescence (Cy5): Cy5-eGFP mRNA polyplexes, 2 h post-transfection, n = 5 fields of view per condition
Experimental: Peptide-mRNA polyplexes were formulated as previously described.[40],[41] In short, two separate stock solutions of mRNA and peptide were prepared in MQ and simultaneously dispensed with electronically dispensing pipettes (E4 Electronic Pipette, LTS E4-100XLS+, Mettler-Toledo Rainin, LLC, Oakland, CA, USA) at a flow rate of 11 mL min^–1. All polyplexes were formed at a concentration of at least 10-fold the final intended concentration for transfections.
as §1
Before microscopy, complete medium containing phenol red was replaced with an equal volume of phenol red-free and HEPES-formulated Opti-MEM (Gibco). The uptake of Cy5-eGFP mRNA-formulated nanoparticles was assessed 2 h post-transfection, and eGFP expression was assessed 24 h post-transfection. Live-cell imaging was performed using a Leica TCS SP8 SMD (Leica Microsystems, Mannheim, Germany) with an HC PL APO CS2 63×/1.20 water objective and a temperature-controlled stage at 36.5 °C. eGFP was excited at 488 nm (emission: 500–550 nm). CellTrace yellow was excited at 555 nm (emission: 570–620 nm), and Cy5 was excited at 633 nm (emission: 650–690 nm). All laser lines were generated by a white-light laser, and emissions were detected with hybrid detectors. All channels were sequentially acquired to avoid crosstalk at a bit depth of 12. Except for the LMM eGFP conditions (reduced gain), equal acquisition settings (pixel size, pinhole, laser power, and gain) per fluorophore were used within the experiments.
Quantification of the Cy5 fluorescence was performed as previously described.[59],[60] In brief, five separate images (unless stated otherwise) containing approximately 10 cells per image were analyzed using ImageJ (version 1.53f51). A square mask of 184.52 μm^2 was used to quantify the raw integrated density (sum of all pixels in a region of interest). Importantly, cell confluencies ranged from ∼80–95%, ensuring minimal impact of cell density on total fluorescence values. The brightness and contrast of the images were adjusted to find a cell-free region to determine background fluorescence. Then, a circle was drawn to measure the background fluorescence. To obtain the corrected total cellular fluorescence (CTCF), the area (in pixels) was multiplied by the mean gray value of the background and subsequently subtracted from the raw integrated density.

[3] = MC3T3, N/P 5, resazurin 24 h post-transfection

## CC(C)C[C@@H]1NC(=O)[C@H](C)NC(=O)[C@H](CCCN)NC(=O)[C@H](C(C)C)NC(=O)[C@H](CCCN)NC(=O)[C@H](CCCN)NC(=O)[C@H](CC(C)C)NC(=O)[C@H](CC(N)=O)NC(=O)[C@H](CCCN)NC(=O)[C@H](CC(C)C)NC(=O)[C@H](Cc2c[nH]c3ccccc23)NC(=O)[C@H](CCC(N)=O)NC(=O)[C@H](Cc2ccccc2)NC(=O)[C@@H](NC(=O)[C@@H](N)CCCN)CSSC[C@@H](C(=O)N[C@@H](CC(C)C)C(=O)N[C@@H](CCCN)C(=O)N[C@@H](CCCN)C(N)=O)NC(=O)[C@H](CO)NC(=O)[C@H](C(C)C)NC(=O)[C@H](CC(C)C)NC1=O [Mono-hLF-v3] (H-[Orn]CFQWL[Orn]NL[Orn][Orn]V[Orn]ALLVSCL[Orn][Orn]-NH2; disulfide 2-19)
[1]; MC3T3, N/P 3, resazurin 24 h post-transfection
  relative metabolic activity: 125%

## CC(C)C[C@@H]1NC(=O)[C@H](C)NC(=O)[C@H](CCCCN)NC(=O)[C@H](C(C)C)NC(=O)[C@H](CCCCN)NC(=O)[C@H](CCCCN)NC(=O)[C@H](CC(C)C)NC(=O)[C@H](CC(N)=O)NC(=O)[C@H](CCCCN)NC(=O)[C@H](CC(C)C)NC(=O)[C@H](Cc2c[nH]c3ccccc23)NC(=O)[C@H](CCC(N)=O)NC(=O)[C@H](Cc2ccccc2)NC(=O)[C@@H](NC(=O)[C@@H](N)CCCCN)CSSC[C@@H](C(=O)N[C@@H](CC(C)C)C(=O)N[C@@H](CCCCN)C(=O)N[C@@H](CCCCN)C(N)=O)NC(=O)[C@H](CO)NC(=O)[C@H](C(C)C)NC(=O)[C@H](CC(C)C)NC1=O [mono-hLF-v2] (H-KCFQWLKNLKKVKALLVSCLKK-NH2; disulfide 2-19)
[1]; [3]
  relative metabolic activity: ~125%

## KCFQWLKNLKKVKALLVSCLKK [hLF-v2, lysine-substituted amphipathic hLF variant]
[2]; 2 h incubation
  effect of oligomerization on uptake: pronounced increase in uptake

## OCFQWLONLOOVOALLVSCLOO (disulfide) [poly hLF-v3, polymeric hLF-v3]
[1]; [3]
  relative metabolic activity: ~125%
[2]; 2 h incubation, live-cell confocal microscopy, serum present, Figure 5, four independent experiments
  uptake of Cy5-labeled mRNA polyplexes of amphipathic hLF variants: comparable to the one of PF14

## OCFQWLONLOOVOALLVSCLOO [hLF-v3, ornithine-substituted amphipathic hLF variant]
[2]; 2 h incubation
  effect of oligomerization on uptake: pronounced increase in uptake

## OCFQWQHNMOHVHGPPVSCIOH [hLF-His&Orn, hLF analog with positively charged residues replaced by histidines and ornithines]
[2]
  ratio of Poly hLF-x vs Mono-hLF-x, Corrected Total Cellular Fluorescence (Cy5): 2.42 x

## OCFQWQONMOOVOGPPVSCIOO [hLF-Orn, hLF analog with positively charged residues replaced by ornithines]
[2]
  ratio of Poly hLF-x vs Mono-hLF-x, Corrected Total Cellular Fluorescence (Cy5): 1.19 x
